Results published in patent US20240246960A1 (adMare Therapeutics Society, priority 2021, published 2024).
Like-named read-outs stand apart in the source and are kept apart here.

How the values were obtained:
DNA-PK = target: T1, DNA-PK (Homo sapiens, UniProt P78527); assay: DNA-PK Assay for Biochemical Enzymatic Inhibition (ADP Glo Kinase assay); details: Table 1
T1 construct: purchased Invitrogen PR9107A
Outline: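 Human DNA-PK (25 ng) preincubated 15 min with compounds (ten three-fold dilutions) in HEPES pH 7.5, MgCl2, KCl, calf thymus DNA buffer, then substrate 434.4 μM and ATP 64.4 μM (final) for 60 min at room temperature. ADP-Glo luminescence; percent inhibition fitted by four-parameter regression for IC50.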

[1] = target: T2, DNA-PK phosphorylation at Serine 2056 (Homo sapiens, UniProt P78527); assay: Cellular Assay for Inhibition of DNA-PK Phosphorylation at Serine 2056 (FaDu cells, neocarzinostatin, sandwich ELISA); assay type: cell-based; details: Table 1
T2 construct: host or cells: FaDu
Outline: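 Readout was pSer2056 and total DNA-PK, measured by sandwich ELISA on protein-normalized lysates. Prior to lysis, compound was applied to FaDu cells for 1 h (0.3% DMSO), followed by 2 h of 1 μg/mL neocarzinostatin. IC50 values were fitted from log concentration versus % inhibition normalized to DMSO and NCS controls.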

[2] = Microsomal stability assay, mouse liver microsomes; details: for microsomal CLint at 0.1 uM: male, CD-1, mouse, liver microsomes, pH 7.4, Microsomal Stability Mouse Clint, 0.1 mg/mL microsomes, 0.1 uM compound
[3] = target: T3, pDNA-PK ser2056 induction in FaDU spheroids (Homo sapiens, UniProt P78527); assay: Multicellular tumour spheroid + radiation, pDNA-PK inhibition, FaDU; assay type: cell-based; details: 20 Gy
T3 construct: host or cells: FaDu
Description: Multicellular tumour spheroids determination of compound inhibition of pDNA-PK induction following radiation. Tumour spheroids were grown to approximately 0.5 mm in diameter and irradiated with 20 Gy in combination with inhibitor test compounds to determine their potency. Inhibitor concentration for 50% reduction in pDNA-PK induction (IC50) was determined via immunohistochemical staining in spheroid cryosections taken 2 hours following radiation. For cell survival endpoint 8 Gy radiation was used and 3 hours following radiation spheroids were dissociated, counted and plated for colony forming endpoint.
Spheroid+radiation pDNA-PK. Radiation: 20 Gy. Drug: serial dilution 5 or 10 μM down to 3.5 nM (11 wells). Spheroids: 3-6 spheroids per well (300-500 μm diameter). 20% O2 and 5% CO2. 96 well plate format. Endpoint: fluorescent immunostain pDNA-PK ser2056 and image on microscope. Analysis: determine EC50 concentrations that decreases pDNA-PK induction […] after irradiation.
Multicellular tumour spheroids were used to determine potency of test compounds in a 3D tissue environment using inhibition of pDNA-PK induction following radiation or cell survival as the endpoint. For the pDNA-PK endpoint HCT116 or FaDU tumour spheroids were grown to approximately 0.5 mm in diameter and irradiated with 20 Gy in combination with inhibitor test compounds to determine their potency. Experiments were carried out in 96 well plates containing 0.7 mls of MEM media containing 10% FBS and 10 mM glucose under 20% O2 & 5% CO2 at 37° C. Following dilution of compounds 1:1000 from DMSO stocks, compounds were serially diluted from 10 μM down to 3.5 nM and 5-10 spheroids added. 96 well plates were constantly stirred to avoid spheroids settling during the course of the experiment. The inhibitor concentration for 50% reduction in pDNA-PK induction (EC50) was determined via immunohistochemical staining in spheroid cryosections taken 2 hours following radiation using anti-pDNA-PK (ser 2056) and fixed immediately in formalin following sectioning. For cell survival endpoint 8 Gy radiation was used and, 3 hours following radiation, spheroids were dissociated, counted and plated for colony forming endpoint. Data presented in the table compound potency as EC50 [μM].

[4] = target: T4, pDNA-PK ser2056 induction in HCT116 spheroids (Homo sapiens, UniProt P78527); assay: Multicellular tumour spheroid + radiation, pDNA-PK inhibition, HCT116; assay type: cell-based; details: 20 Gy
T4 construct: endogenous in cells; host or cells: HCT116 multicellular tumour spheroids
Outline: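 EC50 (μM) is concentration halving radiation-induced pDNA-PK ser2056, scored by fluorescent immunostaining of cryosections 2 h after 20 Gy. HCT116 tumour spheroids (~0.5 mm, stirred, 20% O2/5% CO2, 37 °C) exposed to serial dilutions from 10 or 5 μM to 3.5 nM starting 1 h before irradiation.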

[5] = test system: pH2AX induction in HCT116 ATM−/− multicellular tumour spheroids; assay: Prodrug radiation sensitization in multicellular tumour spheroids (pH2AX induction following radiation); assay type: cell-based; details: Homo sapiens, HCT-116, 20 Gy
Description: Prodrug compounds were assayed to determine their potency in 3D multicellular spheroids in media maintained under 20% vs […]. Multicellular tumour spheroids were grown to approximately 0.5 mm in diameter and irradiated with 20 Gy in combination with inhibitor test compounds to determine their potency using HCT116 and FaDu cell lines. Experiments were carried out in 96 well plates containing 0.7 mls of MEM media containing 10% FBS and 10 mM glucose under […] at 37° C. Following dilution of compounds 1:1000 from DMSO stocks, compounds were serially diluted from 10 μM down to 3.5 nM and 5-10 spheroids added. 96 well plates were constantly stirred to avoid spheroids settling during the course of the experiment. Endpoints were pDNA-PK (ser 2056) or pH2AX (ser 139) status in spheroid cryosections taken 1 or 2 hours following radiation and fixed immediately in formalin. Using tumour cell lines deficient in ATM improved the assay signal to noise and gH2AX readout. Using this assay prodrug activity could be compared in the more oxygenated outer spheroid layers versus less oxygenated hypoxic central cell layers.

FaDu cell line = assay: Prodrug activation in hypoxic stirred tumour cell suspensions; assay type: in vitro ADME; details: 10 μM, 4 hours
Description: Prodrug compounds were assayed to determine their stability and rate of activation in stirred cell suspensions under 0.2 vs 5% oxygen. Compounds were diluted 1:1000 from DMSO stocks to 10 μM final concentration in tumour cell suspensions (1% by cell volume) in MEM media containing 10% FBS, 10 mM glucose & 3.7 g/L sodium bicarbonate. Cell lines assayed included A253, A549, Detroit562, FaDu, HCT116, HEP G2, HT29, SCC25, SCC9, SiHa & TC32. Compounds and cells were then incubated for 4 hours under constant mixing at 37° C. under 5% CO2 and either 0.2 or 5% O2. Following the incubation period cellular activation of the compounds was assayed via MeOH extraction and HPLC quantification.

[6] = Example 8, spheroid, read-out: Cell line: FaDU Immunohistochemical endpoint pDNA-PK inhibition EC50
[7] = Example 9 Study 2, 20% O2, read-out: Spheroid Cell line: FaDU Immunohistochemical endpoint pDNA-PK inhibition EC50
[8] = Example 7, spheroid, cell line HCT115 [sic], 20% O2, read-out: EC50 (pDNA-PK inhibition, immunohistochemical endpoint)
[9] = Example 8, spheroid, read-out: Cell line: HCT116 Immunohistochemical endpoint pDNA-PK inhibition EC50
[10] = Example 9 Study 2, 20% O2, read-out: Spheroid Cell line: HCT116 Immunohistochemical endpoint pDNA-PK inhibition EC50
[11] = 5% O2, inner layers, read-out: Prodrug 5% O2 Inner layers EC50
[12] = 5% O2, outer layers, read-out: Prodrug 5% O2 Outer layers EC50
[13] = 20% O2, outer layers, read-out: Prodrug 20% O2 Outer layers EC50

| SMILES | IC50 (DNA-PK) [nM] | IC50 [1] [nM] | Microsomal Stability (mouse) % rem. 60 min [2] | microsomal CLint at 0.1 uM [2] [µL/min/mg] | EC50 [3, 6] [nM] | EC50 [3, 7] [nM] | EC50 [4, 8] [nM] | EC50 [4, 9] [nM] | EC50 [4, 10] [nM] | EC50 [5, 11] [nM] | EC50 [5, 12] [nM] | EC50 [5, 13] [nM] | Fraction of prodrug converted to active form, Hypoxic 0.2% O2 (FaDu cell line) | Fraction of prodrug converted to active form, Oxic 5% O2 (FaDu cell line) |
| --- | --- | --- | --- | --- | --- | --- | --- | --- | --- | --- | --- | --- | --- | --- |
| O=C(N[C@H]1CC[C@@H](Oc2nc(N3CCOCC3)cc3ncccc23)CC1)c1ccc(F)cc1 [Compound 111, 4-Fluoro-N-((1s,4s)-4-((7-morpholino-1,6-naphthyridin-5-yl)oxy)cyclohexyl)benzamide] | < 0.5 | < 100 | E (% remaining = 0-25%) | > 116 | 500 to 1000 | 500 to 1000 | 1000 to 10000 | 1000 to 10000 | 1000 to 10000 |  |  |  |  |  |
| COc1ccc(C(=O)N[C@H]2CC[C@@H](Oc3nc(N4CCOCC4)cc4ncccc34)CC2)cc1 [Compound 112, 4-Methoxy-N-((1s,4s)-4-((7-morpholino-1,6-naphthyridin-5-yl)oxy)cyclohexyl)benzamide] | < 0.5 | 100 to 1000 | E (% remaining = 0-25%) | > 116 | 10 to 500 | 10 to 500 | 10 to 500 | 10 to 500 | 10 to 500 |  |  |  |  |  |
| Nc1cnc2cc(N3CCOCC3)nc(O[C@H]3CC[C@@H](n4ccnc4)CC3)c2c1 [Compound 160, 5-(((1s,4s)-4-(1H-imidazol-1-yl)cyclohexyl)oxy)-7-morpholino-1,6-naphthyridin-3-amine] | 0.5 to 1 | 100 to 1000 | E (% remaining = 0-25%) | > 116 | 1000 to 10000 | 1000 to 10000 | 1000 to 10000 | 1000 to 10000 | 1000 to 10000 |  |  |  |  |  |
| Cn1c(CN(c2cnc3cc(N4CCOCC4)nc(OC4CCC(Nc5ccn6nccc6n5)CC4)c3c2)S(C)(=O)=O)cnc1[N+](=O)[O-] (stereo not shown) [LFA035, N-[(3-Methyl-2-nitro-imidazol-4-yl)methyl]-N-[7-morpholino-5-[4-(pyrazolo[1,5-a]pyrimidin-5-ylamino)cyclohexoxy]-1,6-naphthyridin-3-yl]methanesulfonamide] |  |  |  |  |  |  |  |  |  | 10 to 500 | 1000 to 10000 | 1000 to 10000 | B (B is 0.05 to 0.15) | D (D is 0 to 0.02) |
| CC(c1cnc([N+](=O)[O-])n1C)N(c1cnc2cc(N3CCOCC3)nc(OC3CCC(Nc4ccn5nccc5n4)CC3)c2c1)S(C)(=O)=O (stereo not shown) [LFA036, N-[1-(3-Methyl-2-nitro-imidazol-4-yl)ethyl]-N-[7-morpholino-5-[4-(pyrazolo[1,5-a]pyrimidin-5-ylamino)cyclohexoxy]-1,6-naphthyridin-3-yl]methanesulfonamide] |  |  |  |  |  |  |  |  |  | 10 to 500 | 500 to 1000 | 10000 to 100000 | A (A is 0.15 to 1) | D (D is 0 to 0.02) |
